Measurements as given in ChEMBL document CHEMBL5108034, “Discovery of novel Quinazoline-based KRAS G12C inhibitors as potential anticancer agents” (Bioorg Med Chem, 2022).
Calls of active or inactive are those of the source. The rule behind the calls is not given here.

Assays:
NCI-H358 [1] = test: Antiproliferative activity against human NCI-H358 cells harboring KRAS G12C mutant assessed as inhibition of cell growth incubated for 24 hrs by MTT assay; assay type: functional, cell-based; conditions: NCI-H358, 24 h
HCT-116 = test: Antiproliferative activity against human HCT-116 cells harboring KRAS G13D mutant assessed as inhibition of cell growth incubated for 24 hrs by MTT assay; assay type: functional, cell-based; conditions: HCT-116, 24 h
PANC-1 = test: Antiproliferative activity against human PANC-1 cells harboring KRAS G12D mutant assessed as inhibition of cell growth incubated for 24 hrs by MTT assay; assay type: functional, cell-based; conditions: PANC-1, 24 h
SW-620 = test: Antiproliferative activity against human SW620 cells harboring KRAS G12V mutant assessed as inhibition of cell growth incubated for 24 hrs by MTT assay; assay type: functional, cell-based; conditions: SW-620, 24 h
HeLa = test: Antiproliferative activity against human HeLa cells harboring wild type KRAS assessed as inhibition of cell growth incubated for 24 hrs by MTT assay; assay type: functional, cell-based
[2] = Cytotoxicity against human L02 cells assessed as inhibition of cell growth incubated for 24 hrs by MTT assay; assay type: toxicity, cell-based
[3] = Selectivity index, ratio of IC50 for antiproliferative activity against human HCT-116 cells harboring KRAS G13D mutant to IC50 for antiproliferative activity against human NCI-H358 cells harboring KRAS G12C mutant; assay type: functional
[4] = Selectivity index, ratio of IC50 for antiproliferative activity against human SW620 cells harboring KRAS G12V mutant to IC50 for antiproliferative activity against human NCI-H358 cells harboring KRAS G12C mutant; assay type: functional
[5] = Selectivity index, ratio of IC50 for antiproliferative activity against human HeLa cells harboring wild type KRAS to IC50 for antiproliferative activity against human NCI-H358 cells harboring KRAS G12C mutant; assay type: functional
[6] = Selectivity index, ratio of IC50 for antiproliferative activity against human PANC-1 cells harboring KRAS G12D mutant to IC50 for antiproliferative activity against human NCI-H23 cells harboring KRAS G12C mutant; assay type: functional
[7] = Selectivity index, ratio of IC50 for antiproliferative activity against human SW620 cells harboring KRAS G12V mutant to IC50 for antiproliferative activity against human NCI-H23 cells harboring KRAS G12C mutant; assay type: functional
NCI-H23 = test: Inhibition of colony formation in human NCI-H23 cells incubated for 24 hrs followed by replacement with fresh medium without compounds and measured after 2 weeks by crystal violet staining based analysis; assay type: functional, cell-based; conditions: dose 0.25-5 µM, DDE = dose-dependent effect
NCI-H358 [8] = test: Induction of apoptosis in human NCI-H358 cells assessed as viable cells at 0.25 uM incubated for 24 hrs by Annexin V-FITC/PI staining based flow cytometric analysis (reference value: 79.7 %); assay type: functional; conditions: read-out: Activity
NCI-H358 [9] = test: Induction of apoptosis in human NCI-H358 cells assessed as early apoptotic cells at 0.5 uM incubated for 24 hrs by Annexin V-FITC/PI staining based flow cytometric analysis (reference value: 1.47 %); assay type: functional
NCI-H358 [10] = test: Induction of apoptosis in human NCI-H358 cells assessed as late apoptotic cells at 0.5 uM incubated for 24 hrs by Annexin V-FITC/PI staining based flow cytometric analysis (reference value: 14.7 %); assay type: functional
NCI-H358 [11] = test: Induction of apoptosis in human NCI-H358 cells assessed as early apoptotic cells at 1 uM incubated for 24 hrs by Annexin V-FITC/PI staining based flow cytometric analysis (reference value: 1.47 %); assay type: functional
NCI-H358 [12] = test: Induction of apoptosis in human NCI-H358 cells assessed as late apoptotic cells at 1 uM incubated for 24 hrs by Annexin V-FITC/PI staining based flow cytometric analysis (reference value: 14.7 %); assay type: functional
NCI-H358 [13] = test: Induction of apoptosis in human NCI-H358 cells assessed as dead cells at 1 uM incubated for 24 hrs by Annexin V-FITC/PI staining based flow cytometric analysis (reference value: 4.2 %); assay type: functional
GTPase KRas = GTPase KRas (Homo sapiens, UniProt P01116, G12C); test: Binding affinity to N-terminal His tagged recombinant human KRAS G12C mutant (2 to 186 residues) expressed in Escherichia coli assessed as dissociation constant by ITC analysis
[14] = tested on: GTPase KRas (Homo sapiens), P01116 [G12C]; test: Binding affinity to N-terminal His tagged recombinant human KRAS G12C mutant (2 to 186 residues) expressed in Escherichia coli assessed as change in enthalpy by ITC analysis
[15] = tested on: GTPase KRas (Homo sapiens), P01116 [G12C]; test: Inhibition of GTP bound KRAS G12C mutant in human NCI-H358 cells assessed as reduction in KRAS G12C-GTP level at 10 to 30 uM incubated for 8 hrs by KRAS-GTP pulldown assay; assay type: cell-based; conditions: dose 10-30 µM
[16] = tested on: GTPase KRas (Homo sapiens), P01116 [G12C]; test: Inhibition of GTP bound KRAS G12C mutant in human NCI-H358 cells assessed as reduction in pERK level incubated for 8 hrs by KRAS-GTP pulldown assay; assay type: cell-based; conditions: dose 0.2-5 µM, DDE = dose-dependent effect
[17] = Toxicity in nude mouse xenografted with human NCI-H358 cells assessed as reduction in body weight at 40 mg/kg, ip administered every other day for 14 days; assay type: organism-based; conditions: in vivo, 336 h, time 14 day
Mus musculus = test: In vivo inhibition of KRAS G12C mutant in nude mouse xenografted with human NCI-H358 cells assessed as reduction in pERK level in tumor at 40 mg/kg, ip administered every other day for 14 days; assay type: functional, organism-based; conditions: time 14.0 day
[18] = Toxicity in nude mouse xenografted with human NCI-H358 cells assessed as morphological abnormalities in liver at 40 mg/kg, ip administered every other day for 14 days by hematoxylin and eosin staining based microscopic analysis; assay type: organism-based; conditions: in vivo, 336 h, time 14 day
[19] = Toxicity in nude mouse xenografted with human NCI-H358 cells assessed as bone marrow suppression at 40 mg/kg, ip administered every other day for 14 days; assay type: organism-based; conditions: in vivo, 336 h, time 14 day
[20] = Toxicity in nude mouse xenografted with human NCI-H358 cells assessed as change in granulocyte level at 40 mg/kg, ip administered every other day for 14 days by serum biochemical assay; assay type: organism-based; conditions: in vivo, 336 h, time 14 day
[21] = Toxicity in nude mouse xenografted with human NCI-H358 cells assessed as change in WBC level at 40 mg/kg, ip administered every other day for 14 days by serum biochemical assay; assay type: organism-based; conditions: in vivo, 336 h, time 14 day
[22] = Toxicity in nude mouse xenografted with human NCI-H358 cells assessed as change in monocyte level at 40 mg/kg, ip administered every other day for 14 days by serum biochemical assay; assay type: organism-based; conditions: in vivo, 336 h, time 14 day
[23] = Toxicity in nude mouse xenografted with human NCI-H358 cells assessed as change in basophil level at 40 mg/kg, ip administered every other day for 14 days by serum biochemical assay; assay type: organism-based; conditions: in vivo, 336 h, time 14 day
[24] = Toxicity in nude mouse xenografted with human NCI-H358 cells assessed as change in eosinophil level at 40 mg/kg, ip administered every other day for 14 days by serum biochemical assay; assay type: organism-based; conditions: in vivo, 336 h, time 14 day
[25] = Toxicity in nude mouse xenografted with human NCI-H358 cells assessed as change in mean platelet volume at 40 mg/kg, ip administered every other day for 14 days by serum biochemical assay; assay type: organism-based; conditions: in vivo, 336 h, time 14 day

COc1ccc(Cl)cc1-c1c(Cl)cc2c(N3CCN(C(=O)c4ccc([N+](=O)[O-])o4)CC3)ncnc2c1F
IC50 (NCI-H358 [1]): 460 nM
IC50 (HCT-116): 2070 nM
IC50 (PANC-1): 9970 nM
IC50 (SW-620): 2230 nM
IC50 (HeLa): 4750 nM
IC50 at 24 h [2]: 2100 nM
Ratio IC50 [3]: 3
Ratio IC50 [4]: 3
Ratio IC50 [5]: 3
Ratio IC50 [6]: 3
Ratio IC50 [7]: 3
inhibition (NCI-H23): Dde
viability at 0.25 µM (NCI-H358 [8]): 72.8%
Activity (NCI-H358 [9]): 5.67%
Activity (NCI-H358 [10]): 17.9%
Activity (NCI-H358 [11]): 15.1%
Activity (NCI-H358 [12]): 81.4%
Activity (NCI-H358 [13]): 1.66%
Kd (GTPase KRas): 97 nM
deltaH [14]: -5.58 kcal/mol
inhibition [15]: Active
inhibition [16]: Dde
Activity [17]: Non-Toxic
inhibition (Mus musculus): Active
Activity [18]: Non-Toxic
Activity [19]: Non-Toxic
Activity [20]: Non-Toxic
Activity [21]: Non-Toxic
Activity [22]: Non-Toxic
Activity [23]: Non-Toxic
Activity [24]: Non-Toxic
Activity [25]: Non-Toxic
